According to paper doi:10.1101/2021.04.08.439011v1 (biorxiv, 2021):

Assays:
[1] = molecular target: AKT3 (Homo sapiens, UniProt Q9Y243); settings: 0.1 µM; binder
[2] = molecular target: PRKCD (Homo sapiens, UniProt Q05655); settings: 0.1 µM; binder
[3] = molecular target: ERK3 (Homo sapiens, UniProt Q16659); settings: 0.1 µM; binder
[4] = molecular target: KIT(D816H) (Homo sapiens, UniProt P10721, D816H); settings: 0.1 µM; binder
[5] = molecular target: MEK5 (Homo sapiens, UniProt Q13163); settings: 0.1 µM; binder
Sequence of MEK5 (Q13163 whole entry): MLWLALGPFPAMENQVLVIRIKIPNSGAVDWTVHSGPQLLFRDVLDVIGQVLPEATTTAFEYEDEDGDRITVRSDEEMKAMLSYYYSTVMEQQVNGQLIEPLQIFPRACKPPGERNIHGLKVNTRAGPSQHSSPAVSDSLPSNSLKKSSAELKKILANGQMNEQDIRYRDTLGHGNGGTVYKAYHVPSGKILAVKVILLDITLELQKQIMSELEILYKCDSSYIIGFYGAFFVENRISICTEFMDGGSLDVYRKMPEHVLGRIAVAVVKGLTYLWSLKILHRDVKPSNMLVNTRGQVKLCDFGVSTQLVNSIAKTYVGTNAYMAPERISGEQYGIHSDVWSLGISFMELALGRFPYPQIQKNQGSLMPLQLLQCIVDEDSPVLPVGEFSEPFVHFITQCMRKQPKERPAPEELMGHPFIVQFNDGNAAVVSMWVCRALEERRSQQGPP

[6] = molecular target: CAMKK1 (Homo sapiens, UniProt Q8N5S9); settings: 0.1 µM; binder
[7] = molecular target: FLT3(D835H) (Homo sapiens, UniProt P36888, D835H); settings: 0.1 µM; binder
[8] = molecular target: LIMK2 (Homo sapiens, UniProt P53671); settings: 0.1 µM; binder
[9] = molecular target: EIF2AK1 (Homo sapiens, UniProt Q9BQI3); settings: 0.1 µM; binder
[10] = molecular target: WNK2 (Homo sapiens, UniProt Q9Y3S1); settings: 0.1 µM; binder
[11] = molecular target: LKB1 (Homo sapiens, UniProt Q15831); settings: 0.1 µM; binder
Sequence of LKB1 (Q15831 whole entry): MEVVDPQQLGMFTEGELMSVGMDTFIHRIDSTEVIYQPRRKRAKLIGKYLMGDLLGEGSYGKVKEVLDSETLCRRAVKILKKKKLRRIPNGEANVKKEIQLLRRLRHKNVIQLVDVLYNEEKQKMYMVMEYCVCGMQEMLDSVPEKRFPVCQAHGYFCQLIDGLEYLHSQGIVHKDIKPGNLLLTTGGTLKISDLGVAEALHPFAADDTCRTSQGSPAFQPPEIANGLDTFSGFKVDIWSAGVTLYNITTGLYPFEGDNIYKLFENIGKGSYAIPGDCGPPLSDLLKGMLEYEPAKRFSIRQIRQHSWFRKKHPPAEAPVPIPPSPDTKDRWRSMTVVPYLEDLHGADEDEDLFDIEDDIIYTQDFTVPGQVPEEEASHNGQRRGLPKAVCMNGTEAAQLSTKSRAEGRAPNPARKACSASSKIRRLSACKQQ

[12] = molecular target: FGFR1 (Homo sapiens, UniProt P11362); settings: 0.1 µM; binder
Sequence of FGFR1 (P11362 whole entry): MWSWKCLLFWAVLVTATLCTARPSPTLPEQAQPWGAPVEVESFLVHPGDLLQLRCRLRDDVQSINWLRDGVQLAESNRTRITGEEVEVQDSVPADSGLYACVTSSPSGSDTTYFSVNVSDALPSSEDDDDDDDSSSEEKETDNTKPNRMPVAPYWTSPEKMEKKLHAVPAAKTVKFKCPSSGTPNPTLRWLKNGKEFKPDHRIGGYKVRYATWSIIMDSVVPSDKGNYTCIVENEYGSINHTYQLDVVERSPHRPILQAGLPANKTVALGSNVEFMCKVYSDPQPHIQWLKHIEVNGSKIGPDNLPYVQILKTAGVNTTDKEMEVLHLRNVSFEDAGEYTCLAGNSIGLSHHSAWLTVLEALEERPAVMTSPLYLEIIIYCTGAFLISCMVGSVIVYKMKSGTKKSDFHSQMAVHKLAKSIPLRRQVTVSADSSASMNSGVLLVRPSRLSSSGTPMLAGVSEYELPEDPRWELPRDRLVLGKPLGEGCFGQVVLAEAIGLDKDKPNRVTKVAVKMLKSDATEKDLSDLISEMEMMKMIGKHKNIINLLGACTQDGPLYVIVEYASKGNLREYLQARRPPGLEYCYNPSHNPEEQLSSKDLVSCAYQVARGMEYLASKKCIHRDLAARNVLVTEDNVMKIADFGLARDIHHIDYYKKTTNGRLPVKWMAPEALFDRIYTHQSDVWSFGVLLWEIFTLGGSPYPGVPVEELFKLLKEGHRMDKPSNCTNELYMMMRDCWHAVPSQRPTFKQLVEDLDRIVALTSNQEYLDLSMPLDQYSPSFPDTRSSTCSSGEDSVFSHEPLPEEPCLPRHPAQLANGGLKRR

[13] = molecular target: STK16 (Homo sapiens, UniProt O75716); settings: 0.1 µM; binder
[14] = molecular target: DDR1 (Homo sapiens, UniProt Q08345); settings: 0.1 µM; binder
[15] = molecular target: HUNK (Homo sapiens, UniProt P57058); settings: 0.1 µM; binder
[16] = molecular target: MET(Y1235D) (Homo sapiens, UniProt P08581, Y1235D); settings: 0.1 µM; binder
[17] = molecular target: PKAC-alpha (Homo sapiens, UniProt P17612); settings: 0.1 µM; binder
[18] = molecular target: ABL1(E255K) (Homo sapiens, UniProt P00519, E255K); settings: phosphorylated; 0.1 µM; binder
[19] = molecular target: MLK3 (Homo sapiens, UniProt Q16584); settings: 0.1 µM; binder
[20] = molecular target: JNK3 (Homo sapiens, UniProt P53779); settings: 0.1 µM; binder
[21] = molecular target: PRKD2 (Homo sapiens, UniProt Q9BZL6); settings: 0.1 µM; binder
Sequence of PRKD2 (Q9BZL6 whole entry): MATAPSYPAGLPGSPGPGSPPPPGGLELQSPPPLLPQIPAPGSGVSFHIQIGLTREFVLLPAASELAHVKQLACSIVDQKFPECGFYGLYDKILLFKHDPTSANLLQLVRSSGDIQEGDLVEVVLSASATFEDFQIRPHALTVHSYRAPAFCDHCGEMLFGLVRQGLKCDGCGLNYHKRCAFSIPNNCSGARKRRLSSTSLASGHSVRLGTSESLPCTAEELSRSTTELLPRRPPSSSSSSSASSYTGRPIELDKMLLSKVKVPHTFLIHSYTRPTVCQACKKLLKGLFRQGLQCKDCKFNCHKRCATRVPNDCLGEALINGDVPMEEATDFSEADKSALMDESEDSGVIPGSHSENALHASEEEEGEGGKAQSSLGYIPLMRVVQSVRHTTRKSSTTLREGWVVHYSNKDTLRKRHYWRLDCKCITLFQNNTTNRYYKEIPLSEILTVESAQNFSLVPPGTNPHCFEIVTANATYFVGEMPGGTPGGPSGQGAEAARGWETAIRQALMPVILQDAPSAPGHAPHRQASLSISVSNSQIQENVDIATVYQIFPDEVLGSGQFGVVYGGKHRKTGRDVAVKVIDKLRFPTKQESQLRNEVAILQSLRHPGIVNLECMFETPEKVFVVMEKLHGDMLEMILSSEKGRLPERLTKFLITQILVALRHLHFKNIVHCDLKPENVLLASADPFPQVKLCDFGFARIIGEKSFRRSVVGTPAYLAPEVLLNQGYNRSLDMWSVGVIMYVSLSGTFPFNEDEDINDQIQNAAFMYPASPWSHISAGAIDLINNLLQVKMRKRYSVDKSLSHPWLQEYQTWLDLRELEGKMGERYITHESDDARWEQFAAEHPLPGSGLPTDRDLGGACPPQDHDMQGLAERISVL

[22] = molecular target: SYK (Homo sapiens, UniProt P43405); settings: 0.1 µM; binder
[23] = molecular target: NEK1 (Homo sapiens, UniProt Q96PY6); settings: 0.1 µM; binder
[24] = molecular target: SLK (Homo sapiens, UniProt Q9H2G2); settings: 0.1 µM; binder
Sequence of SLK (Q9H2G2 whole entry): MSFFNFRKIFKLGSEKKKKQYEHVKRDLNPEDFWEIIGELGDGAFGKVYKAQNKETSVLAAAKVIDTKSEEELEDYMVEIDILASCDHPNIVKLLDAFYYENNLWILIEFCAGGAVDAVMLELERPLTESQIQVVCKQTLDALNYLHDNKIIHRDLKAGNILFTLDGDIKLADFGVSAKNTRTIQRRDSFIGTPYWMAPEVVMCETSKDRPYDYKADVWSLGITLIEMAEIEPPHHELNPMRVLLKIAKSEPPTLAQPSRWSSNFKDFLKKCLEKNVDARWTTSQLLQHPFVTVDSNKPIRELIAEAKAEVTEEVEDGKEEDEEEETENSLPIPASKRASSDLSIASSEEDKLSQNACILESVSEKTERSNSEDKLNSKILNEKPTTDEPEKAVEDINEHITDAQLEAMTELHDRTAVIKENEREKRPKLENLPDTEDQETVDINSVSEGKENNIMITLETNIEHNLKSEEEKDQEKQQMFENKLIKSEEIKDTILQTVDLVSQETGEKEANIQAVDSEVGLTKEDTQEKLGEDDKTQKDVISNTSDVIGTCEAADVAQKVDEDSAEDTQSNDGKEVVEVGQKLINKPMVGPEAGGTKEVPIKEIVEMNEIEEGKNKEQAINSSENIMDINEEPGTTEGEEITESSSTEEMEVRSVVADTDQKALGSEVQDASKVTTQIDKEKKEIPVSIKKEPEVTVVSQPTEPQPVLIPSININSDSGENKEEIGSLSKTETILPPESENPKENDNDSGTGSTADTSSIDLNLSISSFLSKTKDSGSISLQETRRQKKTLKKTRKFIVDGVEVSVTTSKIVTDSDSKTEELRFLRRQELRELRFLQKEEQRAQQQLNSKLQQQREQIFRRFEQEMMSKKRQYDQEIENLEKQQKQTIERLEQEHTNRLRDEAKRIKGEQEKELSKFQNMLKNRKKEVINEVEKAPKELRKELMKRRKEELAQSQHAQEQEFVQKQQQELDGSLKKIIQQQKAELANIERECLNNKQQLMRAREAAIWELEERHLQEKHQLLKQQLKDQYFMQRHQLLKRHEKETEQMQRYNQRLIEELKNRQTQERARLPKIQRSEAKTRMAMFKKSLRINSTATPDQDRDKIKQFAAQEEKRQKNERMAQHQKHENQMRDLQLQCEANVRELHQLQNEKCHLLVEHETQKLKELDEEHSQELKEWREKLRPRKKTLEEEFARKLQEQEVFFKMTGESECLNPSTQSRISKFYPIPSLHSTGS

[25] = molecular target: ITK (Homo sapiens, UniProt Q08881); settings: 0.1 µM; binder
[26] = molecular target: LRRK2(G2019S) (Homo sapiens, UniProt Q5S007, G2019S); settings: 0.1 µM; binder
[27] = molecular target: EGFR(T790M) (Homo sapiens, UniProt P00533, T790M); settings: 0.1 µM; binder
[28] = molecular target: ACVR2B (Homo sapiens, UniProt Q13705); settings: 0.1 µM; binder
Sequence of ACVR2B (Q13705 whole entry): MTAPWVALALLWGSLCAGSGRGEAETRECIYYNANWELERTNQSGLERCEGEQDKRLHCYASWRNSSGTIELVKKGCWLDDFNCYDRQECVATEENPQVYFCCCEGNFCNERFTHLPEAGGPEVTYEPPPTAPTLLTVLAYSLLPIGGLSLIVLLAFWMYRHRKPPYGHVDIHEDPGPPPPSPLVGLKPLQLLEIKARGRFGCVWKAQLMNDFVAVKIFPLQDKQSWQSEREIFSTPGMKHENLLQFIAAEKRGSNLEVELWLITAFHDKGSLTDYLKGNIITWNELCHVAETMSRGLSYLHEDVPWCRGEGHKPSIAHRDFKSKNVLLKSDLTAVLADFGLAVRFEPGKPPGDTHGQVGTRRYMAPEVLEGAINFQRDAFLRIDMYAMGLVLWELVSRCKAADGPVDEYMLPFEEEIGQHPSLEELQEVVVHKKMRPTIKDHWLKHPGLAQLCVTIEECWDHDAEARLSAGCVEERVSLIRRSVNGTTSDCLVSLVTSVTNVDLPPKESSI

[29] = molecular target: DRAK1 (Homo sapiens, UniProt Q9UEE5); settings: 0.1 µM; binder
[30] = molecular target: ERBB3 (Homo sapiens, UniProt P21860); settings: 0.1 µM; binder
[31] = molecular target: SRPK3 (Homo sapiens, UniProt Q9UPE1); settings: 0.1 µM; binder
Sequence of SRPK3 (Q9UPE1 whole entry): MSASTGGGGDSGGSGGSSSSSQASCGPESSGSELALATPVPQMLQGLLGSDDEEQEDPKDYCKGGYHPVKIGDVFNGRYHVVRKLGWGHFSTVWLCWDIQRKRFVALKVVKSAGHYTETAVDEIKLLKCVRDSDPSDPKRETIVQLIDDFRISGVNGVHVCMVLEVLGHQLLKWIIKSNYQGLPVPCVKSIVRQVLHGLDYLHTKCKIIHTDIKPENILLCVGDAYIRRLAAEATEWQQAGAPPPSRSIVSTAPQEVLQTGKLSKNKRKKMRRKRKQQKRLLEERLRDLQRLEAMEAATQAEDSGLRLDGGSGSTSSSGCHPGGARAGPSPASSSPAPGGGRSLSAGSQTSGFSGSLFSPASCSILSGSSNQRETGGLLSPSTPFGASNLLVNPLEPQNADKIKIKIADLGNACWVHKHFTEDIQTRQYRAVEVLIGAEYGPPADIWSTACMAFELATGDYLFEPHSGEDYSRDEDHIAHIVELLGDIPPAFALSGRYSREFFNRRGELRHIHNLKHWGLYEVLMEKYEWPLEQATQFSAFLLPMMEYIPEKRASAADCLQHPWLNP

Structure (SMILES): CNc1ncc2cc(-c3ccc(-c4cccc(C)n4)cc3Cl)c(=O)n(C[C@H]3OC[C@H](N)CO3)c2n1 [compound 6, G-5555]
- Percent Control [1]: 95%
- Percent Control [2]: 100%
- Percent Control [3]: 100%
- Percent Control [4]: 100%
- Percent Control [5]: 13%
- Percent Control [6]: 100%
- Percent Control [7]: 89%
- Percent Control [8]: 100%
- Percent Control [9]: 97%
- Percent Control [10]: 100%
- Percent Control [11]: 100%
- Percent Control [12]: 100%
- Percent Control [13]: 100%
- Percent Control [14]: 100%
- Percent Control [15]: 100%
- Percent Control [16]: 100%
- Percent Control [17]: 100%
- Percent Control [18]: 100%
- Percent Control [19]: 100%
- Percent Control [20]: 92%
- Percent Control [21]: 92%
- Percent Control [22]: 100%
- Percent Control [23]: 100%
- Percent Control [24]: 89%
- Percent Control [25]: 100%
- Percent Control [26]: 100%
- Percent Control [27]: 100%
- Percent Control [28]: 100%
- Percent Control [29]: 79%
- Percent Control [30]: 77%
- Percent Control [31]: 100%
